Assay results as given in patent US12612395B2, “Rocaglate derivatives and uses thereof” (TRUSTEES OF BOSTON UNIVERSITY, priority 2023, dated 2026).
pEC50: −log10 of the molar value. Values joined by “and” are separate entries in the source; they are usually repeats but may differ in a detail not shown here. Equal entries are not always repeated. Where two headings read alike, the source gives them in different places.

What was measured:
[1] = system: cap-dependent translation (FF cistron of FF-HCV-Ren); experiment: In vitro translation assay, bicistronic FF-HCV-Ren mRNA reporter in Krebs-2 extracts; format: biochemical
Description: Given these observations, the inventors next sought to interrogate the effects of compound (−)-20 in secondary assays for both eIF4A and DDX3 engagement. […] While inherent differences between the FP assay conditions (e.g. probe affinity, protein mobility in FP buffer) preclude direct comparison of absolute AmP values across the two different proteins, the inventors noted that relative anti-CSC potencies for these compounds ((−)-7>(−)-5≈(−)-20) were similar to their relative degrees of clamping for DDX3X and eIF4A1. To follow up on these findings, the inventors performed in vitro translation experiments using a bicistronic mRNA reporter construct FF-HCV-Ren, where translation of the firefly luciferase (FF) cistron is cap-dependent, while translation of the Renilla luciferase (HCV-Ren) cistron is driven off an HCV-IRES, rendering translation of this cistron cap-independent.
In vitro translation assays: In vitro translations were performed using 4 ng/μL of bicistronic FF-HCV-Ren/pA51 reporter mRNA and the indicated compound concentrations in Krebs-2 extracts at 30° C. for 1 h as described previously.^S10 Cap-dependent FLuc and cap-independent RLuc activities were assessed on a Berthold Lumat LB 9507 luminometer (Berthold Technologies). Curves were determined using a non-linear regression model on GraphPad Prism 8.4.0.

GBM0308 non-CSCs = experiment: Dose-response killing of GBM non-CSCs (PI/Hoechst, Celigo cytometer); format: cell-based; settings: GBM0308 non-CSCs; for Non-CSCs Max. observed efficacy (% dead cells): Table 1, up to 10 μM
Description: The inventors first evaluated a cohort of seven rocaglate translation inhibitors (1, 3-7, and 9, FIG. 1A and Table 1, compounds 2 and 8 were not tested due to unavailability). To assay for compounds that selectively affect GBM CSCs, the inventors employed the patient-derived tumor-initiating cell (TIC) cell line […] that forms neurospheres (consisting exclusively of tumor-initiating cells or CSCs) when cultured in neurobasal (NBE) medium. Upon exposure to serum and growth factor withdrawal, however, the cell line differentiates, acquires a flattened morphology, and forms a non-CSC population.^20 Thus, compounds can be tested in parallel to assess their effect on GBM CSCs vs. GBM non-CSCs as separate populations with a clean and robust response. This approach has been previously used to perform RNAi-based genetic screens to identify modulators of CSCs.^20 In this study, GBM0308 cells, cultured in stem cell conditions to form CSCs or in medium containing serum to induce differentiation into a non-CSC population, were treated in parallel with compounds at varying doses. Three days post-treatment, propidium iodide (PI) and Hoechst staining were performed and quantified using a Celigo image cytometer. Hoechst dye stained all […] nucleated cells, while PI exclusively stained dead cells. Cell viability and the percentage of cell death were then determined.
Cell Culture: Glioblastoma stem cell lines GBM0308, BT145, and BT112 were cultured in neurobasal (NBE medium) containing N-2 and B-27 supplements, EGF, bFGF, L-glutamine, and Penicillin-Streptomycin), as described previously.^19 Adherent GBM cells were cultured in serum-containing DMEM media (Invitrogen) supplemented with 10% fetal bovine serum (Corning Cellgro™). Cells were incubated at 37° C. and 5% CO2 to allow neurosphere formation. For seeding and subculturing, the neurospheres were gently trypsinized with 0.025% trypsin to form a single-cell suspension.
Dose-Response Testing in GBM Cells: Briefly, on day 1, cells were seeded in triplicate. For CSCs, 1500 cells/well were plated in a low attachment 96-well plate with NBE media and incubated for 3 days at 37° C. and 5% CO2 to allow the formation of neurospheres. For non-CSCs, 3000 cells/well were plated in a 96-well plate with DMEM media supplemented with 10% FBS. Similarly, the assay plates were also incubated for the same duration. Compound treatments started on day 4. Each compound was resuspended in DMSO and then diluted to different concentrations in media to a final concentration of DMSO less than 1%. The compounds were added at concentrations of 10, 3.3, 1.11, 0.37, 0.12, 0.041, 0.013, and 0.004 µM, respectively. DMSO-treated cells served as a control. After 72 h incubation with the compounds, fluorescent stains, propidium iodide, and Hoechst 33342 (Life Technologies, Carlsbad, CA), were used to stain the GBM cells to determine cell viability. A staining solution in 1×PBS was prepared by mixing PI and Hoechst 33342 to working concentrations of 2.5 μM and 20 μM, respectively. 20 μL of this staining solution was added per well, and plates were incubated at 37° C. and 5% CO2 for 60 min. After incubation, plates were read by Celigo imaging cytometer using an inbuilt Celigo application; Cell Viability (Dead+Total). For the viability measurement, the total number of neurospheres/cells and dead neurospheres/cells in each well were counted by the cytometer. The percentage of PI+ cells was normalized to DMSO and plotted against the drug concentration to calculate the EC50 with a four-parameter, variable-slope dose-response curve with an upper constraint of <100% dead cells and a lower constraint of =0% dead cells (GraphPad Prism v.10.0.0). For all dose response experiments, the experimental maximal efficacy (maximum observed % cell death) is reported. Relative EC50 values are reported for all compounds killing >50% of cells.

[2] = FF cistron, Krebs-2 extracts, 30° C., 1 h, read-out: cap-dependent translation inhibition EC50

SMILES	pEC50 [1, 2]	pEC50 ([1]; approximate value, read-out: translation inhibition EC50)	cytotoxic activity against non-CSCs, in words (GBM0308 non-CSCs)	Emax (GBM0308 non-CSCs; Homo sapiens, Table 2, 72 h, highest tested concentration 10 μM, read-out: Non-CSCs Max. observed efficacy (% dead cells)) [%]	Non-CSCs Max. observed efficacy (% dead cells) (GBM0308 non-CSCs; 72 h) [%]
COc1cc(OC)c2c(c1)O[C@@]1(c3ccc(Br)cc3)[C@H](c3ccccc3)[C@@H](C(=O)NS(=O)(=O)N(C)C)[C@@H](O)[C@@]21O [(−)-20, (1R,2R,3S,3aR,8bS)-3a-(4-bromophenyl)-N—(N,N-dimethylsulfamoyl)-1,8b-dihydroxy-6,8-dimethoxy-3-phenyl-2,3,3a,8b-tetrahydro-1H-cyclopenta[b]benzofuran-2-carboxamide]	6.03	~6.00	limited detectable effects	26	
CONC(=O)[C@H]1[C@@H](O)[C@@]2(O)c3c(OC)cc(OC)cc3O[C@@]2(c2ccc(Br)cc2)[C@@H]1c1ccccc1 [(−)-7, SDS-1-021]					31
CONC(=O)[C@H]1[C@@H](O)[C@@]2(O)c3c(OC)cc(OC)cc3O[C@@]2(c2ccc(OC)cc2)[C@@H]1c1ccccc1 [(−)-5, CR-1-31b, reference compound]	6.67 and ~6.70				22
